These results are taken from patent US4769373A, “Anti-arrhythmic azabicyclic compounds” (Richter Gedeon Vegyeszeti Gyar Rt., priority 1983, dated 1988).

Where a name gives a salt, the structure may show the parent alone.

The test system of series [1] is disorders of the cardiac rhythm provoked by aconitine. Description: animal or person. To be noted: for ED50: Rattus norvegicus, iv, read-out: ED50 (dose required to restore the rhythm in 50%), Wistar rats, i.v., aconitine-induced arrhythmia; for ED50 (dose required to restore the rhythm in 50%): i.v., aconitine-induced arrhythmia; for LD50/ED50 index: LD50 mice i.v. / ED50 rats i.v.; for index ratio (index of the test compound : index of Lidocaine): relative to Lidocaine = 1. As for the experimental part: The anti-arrhytmic effect was tested in Wistar rats. The animals first received aconitine intravenously to provoke disorders of the cardiac rhythm [M. Fekete and J. Borsy: Med. Exp. Basel, 10, 93 (1964)] and then i.v. the test (or reference) compound. […] The dose required to restore the rhythm in 50% (ED50 mg/kg) was determined.

A short description of a further series: in vivo. To be noted: mouse, iv, mice, i.v., read-out: LD50 (dose causing 50% mortality).
Series [2] has as its system ischiadic nerve isolated from frog. Nature of the series: local anaesthetic activity on isolated ischiadic nerve. To be noted: relative to Lidocaine.
Series [3] deals with heart isolated from guinea pig. Description: electrophysiological parameters (conduction time, refractory period) of isolated heart. The following applies: relative to quinidine. The source says: The new compounds have no beta-receptor blocking effect. In a local anaesthetic mechanism of effect the compounds of the formula (I) influence certain electrophysiological parameters of the heart. E.g. increase in conduction time and refractory period were observed on heart isolated from guinea pig.

For orientation: ED50 means the dose that gives a 50% effect, or the effect in half of the subjects. With `CN1CC2CCC(N(C)C)C(C1)C2OC(=O)C1c2ccccc2Oc2ccccc21` (stereo not drawn) [compound 1531, 6α-dimethylamino-3-methyl-9α-(xanthen-9-carbonyloxy)-3-azabicyclo[3.3.1]nonane dihydrochloride], in series [1], the ED50 turned out to be 1 mg/kg.

On to `CN1CC2CCC(N(C)C)C(C1)C2OC(=O)c1cccc(F)c1` (stereo not drawn) [compound 1642, 6α-dimethylamino-3-methyl-9α-(3'-fluorobenzoyloxy)-3-azabicyclo[3.3.1]nonane dihydrochloride], for which, in series [1], the ED50 came out at 0.5 mg/kg.

With `Cc1ccc(OC2C3CCC(N(C)C)C2CN(C)C3)cc1` (stereo not drawn) [compound 1548, 6α-dimethylamino-3-methyl-9α-(4'-methylphenoxy)-3-azabicyclo[3.3.1]nonane fumarate], the ED50 in series [1] stood at 2.5 mg/kg.

With `CN1CC2CCC(N(C)C)C(C1)C2Oc1ccccc1Cl` (stereo not drawn) [compound 1536, 6α-dimethylamino-3-methyl-9α-(2'-chlorophenoxy)-3-azabicyclo[3.3.1]nonane dihydrochloride], the 50% effective dose (ED50) in series [1] stood at 1.8 mg/kg.

Regarding `CN1CC2CCC(N(C)C)C(C1)C2OC(=O)c1ccccc1Cl` (stereo not drawn) [compound 1644, 6α-dimethylamino-3-methyl-9α-(2'-chlorobenzoyloxy)-3-azabicyclo[3.3.1]nonane dihydrochloride monohydrate], the ED50 in series [1] was determined as 1.4 mg/kg.

In the case of `CN1CC2CCC(N(C)C)C(C1)C2OC(=O)c1ccc(Cl)c(Cl)c1` (stereo not drawn) [compound 1643, 6α-dimethylamino-3-methyl-9α-(3',4'-dichlorobenzoyloxy)-3-azabicyclo[3.3.1]nonane dihydrochloride], the ED50 in series [1] worked out at 1.2 mg/kg.

As for `CN1CC2CCC(N(C)C)C(C1)C2Oc1ccc(Cl)c(Cl)c1` (stereo not drawn) [compound 1537, 6α-dimethylamino-3-methyl-9α-(3',4'-dichlorophenoxy)-3-azabicyclo[3.3.1]noname fumarate], the ED50 in series [1] was determined as 4 mg/kg.

Turning to `CN1CC2CCC(N(C)C)C(C1)C2OC(=O)C1c2ccccc2Oc2ccccc21` (stereo not drawn) [compound 1543, 6β-dimethylamino-3-methyl-9α-(xanthen-9'-carbonyloxy)-3-azabicyclo[3.3.1]nonane], in series [1] (Wistar rats), the “ED50 (dose required to restore the rhythm in 50%)” value is listed as 0.6 mg/kg.

As for `CN1CC2CCC(N(C)C)C(C1)C2OC(=O)c1ccc2ccccc2c1` (stereo not drawn) [compound 1840, 6β-dimethylamino-3-methyl-9α-(2'naphthoyloxy)-3-azabicyclo[3.3.1]nonane dihydrochloride], the “ED50 (dose required to restore the rhythm in 50%)” value in series [1] (Wistar rats, dihydrochloride) worked out at 0.95 mg/kg.

As to `CN1CC2CCC(N(C)C)C(C1)C2OC(=O)c1ccc(Cl)cc1` (stereo not drawn) [compound 1658, 6β-dimethylamino-3-methyl-9α-(4'-chlorobenzoyloxy)-3-azabicyclo[3.3.1]nonane dihydrochloride], the “ED50 (dose required to restore the rhythm in 50%)” value in series [1] (Wistar rats, dihydrochloride) is reported as 2.3 mg/kg.

As for `CN1CC2CCC(N(C)C)C(C1)C2OC(=O)c1cccs1` (stereo not drawn) [compound 1797, 6α-dimethylamino-3-methyl-9α-(2'-thenoyloxy)-3-azabicyclo[3.3.1]nonane], in series [1], the ED50 came out at 0.45 mg/kg.

On to `CN1CC2CCC(N(C)C)C(C1)C2Oc1cccc(C(F)(F)F)c1` (stereo not drawn) [compound 1545, 6β-dimethylamino-3-methyl-9α-(3'-trifluoromethylphenoxy)-3-azabicyclo[3.3.1]nonane dihydrochloride], for which the “ED50 (dose required to restore the rhythm in 50%)” value in series [1] (Wistar rats, dihydrochloride) was determined as 1.8 mg/kg.

The LD50 is the dose expected to kill half of the subjects tested. With `COc1cc(C(=O)OC2C3CCC(N(C)C)C2CN(C)C3)cc(OC)c1OC` (stereo not drawn) [compound 1529, 6α-dimethylamino-3-methyl-9α(3',4',5'-trimethoxybenzoyloxy)-3-azabicyclo[3.3.1]nonane], the LD50 in “in vivo” came out at 35.2 mg/kg. Moreover, in series [1], the LD50/ED50 index is listed as 234.0, the ED50 stood at 0.15 mg/kg and the “index ratio (index of the test compound : index of Lidocaine)” value (“index ratio” for short) is recorded as 71.8. For the same compound, in series [1] (Wistar rats, 20 mg/kg dose p.o.), the “anti-arrhythmic effect, oral” value is given as “prolonged anti-arrhythmic effect”.

As for `CN1CC2CCC(N(C)C)C(C1)C2Oc1cccc(C(F)(F)F)c1` (stereo not drawn) [compound 1539, 6α-dimethylamino-3-methyl-9α-(3'-trifluoromethylphenoxy)-3-azabicyclo[3.3.1]nonane fumarate], the “local anaesthetic activity compared with Lidocaine” value in series [2] is given as “as active as the Lidocaine”. The LD50 in the series “in vivo” amounted to 64 mg/kg. For the same compound, in series [1], the LD50/ED50 index came to 256.0 and the “index ratio” value stood at 78.5. Further, the “ED50 (dose required to restore the rhythm in 50%)” value in series [1] (Wistar rats) amounted to 0.25 mg/kg.

On to `CN1CC2CCC(N(C)C)C(C1)C2Oc1ccccc1` (stereo not drawn) [compound 1533, 6α-dimethylamino-3-methyl-9α-phenoxy-3-azabicyclo[3.3.1]nonane], for which the ED50 in series [1] stood at 1.4 mg/kg.

Turning to `CN1CC2CCC(N(C)C)C(C1)C2OC(=O)c1ccc(F)cc1` (stereo not drawn) [compound 1641, 6α-dimethylamino-3-methyl-9α-(4'-fluorobenzoyloxy)-3-azabicyclo[3.3.1]nonane dihydrochloride monohydrate], the ED50 in series [1] is 0.55 mg/kg.

For `CN1CC2CCC(N(C)C)C(C1)C2Oc1cccc(Cl)c1` (stereo not drawn) [compound 1535, 6α-dimethylamino-3-methyl-9α-(3'-chlorophenoxy)-3-azabicyclo[3.3.1]nonane monohydrochloride], in series [1], the ED50 was found to be 2.5 mg/kg.

For the compound `CN1CC2CCC(N(C)C)C(C1)C2OC(=O)c1ccc(-c2ccccc2)cc1` (stereo not drawn) [compound 1530, 6α-dimethylamino-3-methyl-9α-(4'-phenylbenzoyloxy)-3-azabicyclo[3.3.1]nonane], in series [1], the ED50 came to 1.8 mg/kg.

With `Cc1ccc(C(=O)OC2C3CCC(N(C)C)C2CN(C)C3)cc1` (stereo not drawn) [compound 1799, 6α-dimethylamino-3-methyl-9α-(4'-methylbenzoyloxy)-3-azabicyclo[3.3.1]nonane dihydrochloride], in series [1], the ED50 is 1.1 mg/kg.

Consider `CN1CC2CCC(N(C)C)C(C1)C2Oc1ccc(Cl)cc1` (stereo not drawn) [compound 1534, 6α-dimethylamino-3-methyl-9α-(4'-chlorophenoxy)-3-azabicyclo[3.3.1]nonane fumarate], for which the ED50 in series [1] was determined as 1.1 mg/kg.

With `CN1CC2CCC(N(C)C)C(C1)C2OC(=O)c1ccccc1` (stereo not drawn) [compound 1542, 6β-dimethylamino-3-methyl-9α-benzoyloxy-3-azabicyclo[3.3.1]nonane], the “local anaesthetic activity compared with Lidocaine” value in series [2] is “four times more favorable effective than Lidocaine”. In addition, the LD50 in “in vivo” is 21.7 mg/kg. Moreover, the “activity on electrophysiological parameters compared with quinidine” value in series [3] is on record as “about five times more active than the quinidine”. Also, in series [1], the LD50/ED50 index is 50.5 and the “index ratio” value worked out at 15.5. Besides, the “ED50 (dose required to restore the rhythm in 50%)” value in series [1] (Wistar rats) is listed as 0.43 mg/kg.

For `CN1CC2CCC(N(C)C)C(C1)C2OC(=O)C1c2ccccc2Oc2ccccc21` (stereo not drawn) [compound 1547, 6α-dimethylamino-3-methyl-9β-(xanthen-9'-carbonyloxy)-3-azabicyclo[3.3.1]nonane], the LD50 in the series “in vivo” came to 36.3 mg/kg. Also, in series [1], the LD50/ED50 index was 51.1 and the “index ratio” value stood at 15.7. Besides, in series [1] (Wistar rats), the “ED50 (dose required to restore the rhythm in 50%)” value came to 0.71 mg/kg.

Take `CN1CC2CCC(N(C)C)C(C1)C2OC(=O)c1ccccc1` (stereo not drawn) [compound 1528, 6α-dimethylamino-3-methyl-9α-benzoyloxy-3-azabicyclo[3.3.1]nonane dihydrochloride]: the “ED50 (dose required to restore the rhythm in 50%)” value in series [1] (Wistar rats, dihydrochloride) turned out to be 0.68 mg/kg.

With `CN1CC2CCC(N(C)C)C(C1)C2OC(=O)c1ccccc1` (stereo not drawn) [compound 1541, 6α-dimethylamino-3-methyl-9β-benzoyloxy-3-azabicyclo[3.3.1]nonane dihydrochloride], the “ED50 (dose required to restore the rhythm in 50%)” value in series [1] (Wistar rats, dihydrochloride) is listed as 3.5 mg/kg.

Take `CN1CC2CCC(N(C)C)C(C1)C2OC(=O)c1cccc(Cl)c1` (stereo not drawn) [compound 1645, 6α-dimethylamino-3-methyl-9α-(3'-chlorobenzoyloxy)-3-azabicyclo[3.3.1]nonane dihydrochloride monohydrate]: the ED50 in series [1] was found to be 1.2 mg/kg.

Turning to `CN1CC2CCC(N(C)C)C(C1)C2OC(=O)c1ccc(Cl)cc1` (stereo not drawn) [compound 1800, 6α-dimethylamino-3-methyl-9α-(4'-chlorobenzoyloxy)-3-azabicyclo[3.3.1]nonane dihydrochloride], the “ED50 (dose required to restore the rhythm in 50%)” value in series [1] (Wistar rats, dihydrochloride) turned out to be 0.75 mg/kg.

Consider `CN1CC2CCC(N(C)C)C(C1)C2OC(=O)c1ccc2ccccc2c1` (stereo not drawn) [compound 1801, 6α-dimethylamino-3-methyl-9α-(2'-naphthoyloxy)-3-azabicyclo[3.3.1]nonane], for which the ED50 in series [1] was found to be 0.7 mg/kg.

As to `CCN(CC)CC(=O)Nc1c(C)cccc1C` [Lidocaine, reference compound], the ED50 in series [1] stood at 7.7 mg/kg.

Turning to `CN1CC2CCC(N(C)C)C(C1)C2OC(=O)c1cccc(C(F)(F)F)c1` (stereo not drawn) [compound 1648, 6α-dimethylamino-3-methyl-9α-(3'-trifluoremethylbenzoyloxy)-3-azabicyclo[3.3.1]nonane dihydrochloride], in series [1], the ED50 amounted to 1 mg/kg.

As to `CN1CC2CCC(N(C)C)C(C1)C2Oc1ccccc1` (stereo not drawn) [compound 1544, 6β-dimethylamino-3-methyl-9α-phenoxy-3-azabicyclo-[3.3.1]nonane], the “ED50 (dose required to restore the rhythm in 50%)” value in series [1] (Wistar rats) came to 1.4 mg/kg.

Consider `CN1CC2CCC(N(C)C)C(C1)C2OC(c1ccccc1)c1ccccc1` (stereo not drawn) [compound 1540, 6α-dimethylamino-3-methyl-9α-benzhydryloxy-3-azabiocyclo[3.3.1]nonane], for which the ED50 in series [1] came out at 0.4 mg/kg.
